# In article PMC3269340, “Pharmacokinetics of memantine in rats and mice” (PLoS Currents, 2012):
# Target: T1, OCT2 (Homo sapiens, UniProt O15244)
# T1 construct: expressed in transfected cells; host or cells: CHO cells
# T1 sequence (O15244 1-555): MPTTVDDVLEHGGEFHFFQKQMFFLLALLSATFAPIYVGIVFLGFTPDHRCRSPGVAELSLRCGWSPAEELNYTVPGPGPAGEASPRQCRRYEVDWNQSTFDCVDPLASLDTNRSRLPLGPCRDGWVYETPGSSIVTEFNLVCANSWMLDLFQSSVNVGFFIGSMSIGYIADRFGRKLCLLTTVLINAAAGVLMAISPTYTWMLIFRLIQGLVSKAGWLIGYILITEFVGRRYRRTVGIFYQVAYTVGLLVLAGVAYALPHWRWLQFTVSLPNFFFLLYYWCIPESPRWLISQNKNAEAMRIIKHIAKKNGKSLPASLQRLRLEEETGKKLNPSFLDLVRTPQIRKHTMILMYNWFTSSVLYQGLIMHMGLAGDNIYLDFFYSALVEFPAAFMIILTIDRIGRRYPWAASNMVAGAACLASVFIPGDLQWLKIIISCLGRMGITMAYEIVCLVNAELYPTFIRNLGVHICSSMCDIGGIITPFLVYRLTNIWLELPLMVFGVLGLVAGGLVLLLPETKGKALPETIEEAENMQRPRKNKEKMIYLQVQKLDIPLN
# Experiment: Direct uptake transporter assay, OCT2
# Format: in vitro ADME
# Settings: for Accumulation in transporter transfected cells: OCT2-transfected cells; for Accumulation in parental cells: parental CHO cells (OCT2 line)
# Experimental: To determine whether memantine is a substrate of the human OATP2B1 (OATP-B), OCT1, OCT2, OAT3, PEPT1, PEPT2 uptake transporters.
# The potential for memantine to be a substrate of an uptake transporter was determined directly by comparing the uptake of memantine into cells expressing the selected uptake transporter with its uptake into control cells. Memantine was added to transporter-expressing and control cells at two concentrations (PEPT1 and PEPT2 100 and 300 µM, OCT1 and OCT2 50 and 100 µM, OATP2B1 100 and 300 µM), and incubated with cells for 2 and 20 min at 37±1°C (75 µL final incubation volume). […] Incubations were carried out as described in the indirect uptake transporter assays. The concentration of memantine was determined by LC-MS/MS.
smiles,measurement,setting,value
CC12CC3CC(C)(C1)CC(N)(C3)C2 [memantine],substrate of OCT2 uptake transporter,,appeared to be a substrate
same,accumulation in transporter-transfected cells higher than in parental cells,OCT2,> 1.5 fold
same,Highest Fold Activation,"OCT2, 100µM, 2 min","1.88 (100µM, 2 min)"
same,Accumulation in transporter transfected cells,"2 min, 50 µM",8492 pmol/mg
same,Accumulation in transporter transfected cells,"2 min, 100 µM",15071 pmol/mg
same,Accumulation in transporter transfected cells,"20 min, 50 µM",8866 pmol/mg
same,Accumulation in transporter transfected cells,"20 min, 100 µM",15495 pmol/mg
same,Accumulation in parental cells,"2 min, 50 µM",5660 pmol/mg
same,Accumulation in parental cells,"2 min, 100 µM",8000 pmol/mg
same,Accumulation in parental cells,"20 min, 50 µM",5790 pmol/mg
same,Accumulation in parental cells,"20 min, 100 µM",8459 pmol/mg
